This note sets out measurements from PubChem BioAssay (NCI).

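Interpolation was linear, between the two tested concentrations surrounding the appropriate level; five concentrations were tested over 48 hours in 96-well plates. TGI: total growth inhibition.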

Test systems include OVCAR-4 ovarian; K-562 leukemia; HCT-15 colon; PC-3 prostate; UACC-257 melanoma; SK-MEL-2 melanoma.
Test in all cases: NCI-60 cell line screen, 48 h

With `N=C(N)c1ccc(-c2ccc(-c3ccc(C(=N)N)cc3)o2)cc1`, the TGI is > 100 µM in the experiment on OVCAR-4 ovarian; > 100 µM in the experiment on K-562 leukemia; > 100 µM with HCT-15 colon; > 100 µM in the experiment with PC-3 prostate; 87.2 µM with UACC-257 melanoma; 59.2 µM in the experiment on SK-MEL-2 melanoma.

On to `CC1(C)CC[C@]2(C(=O)O)CC[C@]3(C)C(=CC[C@@H]4[C@@]5(C)CC[C@@H]6OC(C)(C)OC[C@@]6(C)[C@@H]5CC[C@]43C)[C@H]2C1`, for which the TGI in the experiment on OVCAR-4 ovarian is > 100 µM; with K-562 leukemia, 40.6 µM; in the experiment on HCT-15 colon, 13.9 µM; in the experiment on PC-3 prostate, 19.1 µM; with UACC-257 melanoma, 31.8 µM; in the experiment on SK-MEL-2 melanoma, 32.6 µM.

For `CC(C)=CCC/C(C)=C/CC/C(C)=C/CC/C(C=O)=C/CC/C(C)=C\CC/C(C)=C/CC/C(C)=C/CC/C(C)=C/CC1=CC(=O)C=CC1=O`, the TGI in the experiment with OVCAR-4 ovarian, in the experiment with K-562 leukemia, in the experiment on HCT-15 colon, with PC-3 prostate, with UACC-257 melanoma and in the experiment with SK-MEL-2 melanoma was > 100 µM throughout.

With `COC(=O)c1cc(/C=C2\Cc3cc4c(cc3C2=O)CCC4)cc2c1CCC2`, the TGI with OVCAR-4 ovarian, in the experiment on K-562 leukemia, in the experiment with HCT-15 colon, in the experiment on PC-3 prostate, in the experiment with UACC-257 melanoma and with SK-MEL-2 melanoma was > 100 µM each time.

Consider `Cc1ccc(S(=O)(=O)N/N=C2/CC[C@H](C(C)(C)C)C[C@@H]2C)cc1`, for which the TGI in the experiment on OVCAR-4 ovarian came out at 20 µM; with K-562 leukemia it was 42.1 µM; in the experiment with HCT-15 colon, 32.7 µM; in the experiment on PC-3 prostate, 36.8 µM; in the experiment on UACC-257 melanoma, 27 µM; in the experiment on SK-MEL-2 melanoma, 32.4 µM.

On to `O=C1CCC2(c3ccc(F)cc3)Nc3ncncc3N12` (centres undefined), for which the TGI in the experiment with OVCAR-4 ovarian, in the experiment on K-562 leukemia, in the experiment on HCT-15 colon, in the experiment on PC-3 prostate, in the experiment with UACC-257 melanoma and with SK-MEL-2 melanoma was > 10 µM in each case.

Take `CO/N=C/c1c(-c2ccc(Cl)cc2)c(/C=N/OC)n2c1sc1ccccc12`: the TGI with OVCAR-4 ovarian, in the experiment with K-562 leukemia, in the experiment with HCT-15 colon, in the experiment on PC-3 prostate, in the experiment with UACC-257 melanoma and in the experiment with SK-MEL-2 melanoma was > 100 µM each time.

As to `CC1(C)OC([C@H](O)CO)C([C@H]2NCCS2)O1` (some centres undefined), the TGI in the experiment with OVCAR-4 ovarian, in the experiment with K-562 leukemia, in the experiment on HCT-15 colon, in the experiment on PC-3 prostate, in the experiment with UACC-257 melanoma and in the experiment with SK-MEL-2 melanoma was > 100 µM each time.

Turning to `O=C1c2cccnc2-c2nccc3ccnc1c23`, the TGI in the experiment with OVCAR-4 ovarian turned out to be 5.46 µM; in the experiment with K-562 leukemia it was 0.666 µM; with HCT-15 colon, 1.8 µM; in the experiment with PC-3 prostate, 3.45 µM; in the experiment with UACC-257 melanoma, 2.27 µM; in the experiment on SK-MEL-2 melanoma, 4.64 µM.

Regarding `CC(=O)O[C@H]1C(=O)[C@@]2(C)[C@H]([C@H](OC(=O)c3ccncc3)[C@]3(O)C[C@H](OC(=O)[C@H](O)[C@@H](NC(=O)c4ccccc4)c4ccccc4)C(C)=C1C3(C)C)[C@]1(OC(C)=O)CO[C@@H]1C[C@@H]2O`, the TGI in the experiment on OVCAR-4 ovarian is > 25 µM; in the experiment with K-562 leukemia it was 5.36 µM; in the experiment on HCT-15 colon, > 25 µM; in the experiment on PC-3 prostate, > 21 µM; in the experiment with UACC-257 melanoma, > 25 µM; in the experiment with SK-MEL-2 melanoma it was > 25 µM.

Turning to `Oc1ccc2c3c1OC1c4[nH]c5c(c4CC4(O)C(C2)N(CC2CC2)CC[C@]314)CC1(O)C2Cc3ccc(O)c4c3[C@@]1(CCN2CC1CC1)C5O4` (some centres undefined), the TGI was 90.5 µM in the experiment on OVCAR-4 ovarian; 63.9 µM in the experiment with K-562 leukemia; > 100 µM with HCT-15 colon; > 100 µM in the experiment on PC-3 prostate; 37.4 µM in the experiment with UACC-257 melanoma; 44.8 µM with SK-MEL-2 melanoma.

For the compound `Clc1cccc(Cl)c1C1SCc2nc3ncccc3n21` (centres undefined), the TGI with OVCAR-4 ovarian, with K-562 leukemia, in the experiment with HCT-15 colon, in the experiment with PC-3 prostate, in the experiment with UACC-257 melanoma and in the experiment on SK-MEL-2 melanoma was > 100 µM throughout.

Regarding `Cc1ccc2cccc(OC(=O)c3cc4c(cc3Cl)Sc3nccn3S4(=O)=O)c2n1`, the TGI with OVCAR-4 ovarian came out at 25.1 µM; in the experiment on K-562 leukemia it was 23.9 µM; in the experiment with HCT-15 colon, 29 µM; with PC-3 prostate, 14.7 µM; in the experiment on UACC-257 melanoma, 25.4 µM; in the experiment with SK-MEL-2 melanoma, 27.1 µM.

On to `CN(C)CC1CN(C(=O)Nc2ccccc2)C(=N)O1` (centres undefined), for which the TGI with OVCAR-4 ovarian, with K-562 leukemia, in the experiment with HCT-15 colon, in the experiment with PC-3 prostate, with UACC-257 melanoma and with SK-MEL-2 melanoma was > 100 µM in each case.

Take `CCOC(=O)C1C(=O)CC(C)(O)C(C(=O)OCC)C1c1ccc(OC)cc1` (centres undefined): the TGI in the experiment on OVCAR-4 ovarian, with K-562 leukemia, with HCT-15 colon, with PC-3 prostate, with UACC-257 melanoma and with SK-MEL-2 melanoma was > 100 µM each time.

Regarding `Cc1c(C)c2ccc(O)cc2[nH]c1=O`, the TGI in the experiment on OVCAR-4 ovarian, with K-562 leukemia, in the experiment with HCT-15 colon, in the experiment with PC-3 prostate, in the experiment on UACC-257 melanoma and with SK-MEL-2 melanoma was > 100 µM throughout.

Turning to `Clc1ccc(N=Cc2cc3cc(Br)ccc3nc2Cl)cc1`, the TGI in the experiment with OVCAR-4 ovarian is 24.2 µM; in the experiment on K-562 leukemia, > 50 µM; in the experiment on HCT-15 colon it was > 50 µM; with PC-3 prostate it was > 50 µM; with UACC-257 melanoma, > 50 µM; in the experiment with SK-MEL-2 melanoma, 48.3 µM.

As for `O=C1NCN(c2ccccc2)C12CCN(CCCSc1ccc(F)cc1)CC2`, the TGI in the experiment with OVCAR-4 ovarian is > 96.6 µM; in the experiment with K-562 leukemia, > 79.2 µM; with HCT-15 colon, > 100 µM; in the experiment on PC-3 prostate, > 100 µM; in the experiment on UACC-257 melanoma, 8.21 µM; in the experiment on SK-MEL-2 melanoma, 43.3 µM.

On to `COc1cc2c(cc1OC)C(=O)/C(=C/c1ccccc1)C2`, for which the TGI in the experiment with OVCAR-4 ovarian is > 100 µM; in the experiment on K-562 leukemia it was > 65.6 µM; in the experiment with HCT-15 colon it was > 100 µM; with PC-3 prostate, > 100 µM; in the experiment with UACC-257 melanoma it was > 100 µM; in the experiment on SK-MEL-2 melanoma it was > 100 µM.
